From the NIST ThermoML archive (doi:10.1016/j.jct.2017.03.006)

Legend:
[1] = Liquid; for mass density: Vibrating tube method; for viscosity: Concentric cylinders viscometry
[2] = molar heat capacity at constant pressure; settings: Liquid, Flow calorimetry

CCC(C)O (stereo not drawn) [butan-2-ol]
Settings	mass density [kg/m3]	molar heat capacity at constant pressure [J/K/mol]	viscosity [mPa·s]
[1], 273.15 K, 100 kPa	822.3	–	–
[1], 273.15 K, 1000 kPa	822.7	–	–
[1], 273.15 K, 2000 kPa	823.4	–	–
[1], 273.15 K, 5000 kPa	825.4	–	–
[1], 273.15 K, 10000 kPa	828.7	–	–
[1], 273.15 K, 15000 kPa	831.8	–	–
[1], 273.15 K, 20000 kPa	834.7	–	–
[1], 273.15 K, 30000 kPa	840.4	–	–
[1], 273.15 K, 40000 kPa	845.7	–	–
[1], 273.15 K, 50000 kPa	850.7	–	–
[1], 273.15 K, 60000 kPa	855.4	–	–
[1], 273.15 K, 70000 kPa	859.9	–	–
[1], 273.15 K, 80000 kPa	864.3	–	–
[1], 273.15 K, 90000 kPa	868.4	–	–
[1], 273.15 K, 100000 kPa	872.4	–	–
[1], 273.15 K, 110000 kPa	876.3	–	–
[1], 273.15 K, 120000 kPa	879.9	–	–
[1], 273.15 K, 130000 kPa	883.5	–	–
[1], 273.15 K, 140000 kPa	887.2	–	–
[1], 293.15 K, 100 kPa	806.3	–	3.725
[1], 293.15 K, 1000 kPa	807	–	–
[1], 293.15 K, 2000 kPa	807.8	–	–
[1], 293.15 K, 5000 kPa	810	–	–
[1], 293.15 K, 10000 kPa	813.6	–	–
[1], 293.15 K, 15000 kPa	817	–	–
[1], 293.15 K, 20000 kPa	820.2	–	–
[1], 293.15 K, 30000 kPa	826.5	–	–
[1], 293.15 K, 40000 kPa	832.3	–	–
[1], 293.15 K, 50000 kPa	837.7	–	–
[1], 293.15 K, 60000 kPa	842.8	–	–
[1], 293.15 K, 70000 kPa	847.7	–	–
[1], 293.15 K, 80000 kPa	852.3	–	–
[1], 293.15 K, 90000 kPa	856.7	–	–
[1], 293.15 K, 100000 kPa	860.9	–	–
[1], 293.15 K, 110000 kPa	865	–	–
[1], 293.15 K, 120000 kPa	868.8	–	–
[1], 293.15 K, 130000 kPa	872.7	–	–
[1], 293.15 K, 140000 kPa	876.3	–	–
[1], 303.15 K, 100 kPa	–	–	2.555
[1], 313.15 K, 100 kPa	789.4	–	1.814
[1], 313.15 K, 1000 kPa	790.1	–	–
[1], 313.15 K, 2000 kPa	791	–	–
[1], 313.15 K, 5000 kPa	793.5	–	–
[1], 313.15 K, 10000 kPa	797.5	–	–
[1], 313.15 K, 15000 kPa	801.4	–	–
[1], 313.15 K, 20000 kPa	805.1	–	–
[1], 313.15 K, 30000 kPa	811.9	–	–
[1], 313.15 K, 40000 kPa	818.3	–	–
[1], 313.15 K, 50000 kPa	824.1	–	–
[1], 313.15 K, 60000 kPa	829.6	–	–
[1], 313.15 K, 70000 kPa	835	–	–
[1], 313.15 K, 80000 kPa	839.9	–	–
[1], 313.15 K, 90000 kPa	844.6	–	–
[1], 313.15 K, 100000 kPa	849	–	–
[1], 313.15 K, 110000 kPa	853.3	–	–
[1], 313.15 K, 120000 kPa	857.5	–	–
[1], 313.15 K, 130000 kPa	861.5	–	–
[1], 313.15 K, 140000 kPa	865.4	–	–
[1], 323.15 K, 100 kPa	–	–	1.331
[1], 333.15 K, 100 kPa	770.7	–	1.007
[1], 333.15 K, 1000 kPa	771.6	–	–
[1], 333.15 K, 2000 kPa	772.6	–	–
[1], 333.15 K, 5000 kPa	775.5	–	–
[1], 333.15 K, 10000 kPa	780.1	–	–
[1], 333.15 K, 15000 kPa	784.4	–	–
[1], 333.15 K, 20000 kPa	788.6	–	–
[1], 333.15 K, 30000 kPa	796.2	–	–
[1], 333.15 K, 40000 kPa	803.2	–	–
[1], 333.15 K, 50000 kPa	809.6	–	–
[1], 333.15 K, 60000 kPa	815.7	–	–
[1], 333.15 K, 70000 kPa	821.4	–	–
[1], 333.15 K, 80000 kPa	826.7	–	–
[1], 333.15 K, 90000 kPa	831.8	–	–
[1], 333.15 K, 100000 kPa	836.6	–	–
[1], 333.15 K, 110000 kPa	841.2	–	–
[1], 333.15 K, 120000 kPa	845.5	–	–
[1], 333.15 K, 130000 kPa	849.8	–	–
[1], 333.15 K, 140000 kPa	853.9	–	–
[2], 293.15 K, 100 kPa	–	189.1	–
[2], 293.15 K, 5000 kPa	–	187.1	–
[2], 293.15 K, 10000 kPa	–	185.5	–
[2], 293.15 K, 15000 kPa	–	185.2	–
[2], 293.15 K, 20000 kPa	–	183.6	–
[2], 293.15 K, 25000 kPa	–	182.7	–
[2], 313.15 K, 100 kPa	–	214.9	–
[2], 313.15 K, 5000 kPa	–	213.1	–
[2], 313.15 K, 10000 kPa	–	211.1	–
[2], 313.15 K, 15000 kPa	–	209.4	–
[2], 313.15 K, 20000 kPa	–	207.2	–
[2], 313.15 K, 25000 kPa	–	204.9	–
